Results as given in the NIST ThermoML archive (doi:10.1016/j.fluid.2011.10.017).
± gives the expanded uncertainty stated by the source.

Assays:
[1] = 298.15 K; 101.33 kPa; Liquid; Vibrating tube method
[2] = refractive index (Na D-line) (dimensionless); conditions: 298.15 K; 101.33 kPa; Liquid; Standard Abbe refractometry

SMILES	mass density [1] [kg/m3]	refractive index [2]
CCCCCC[n+]1ccc(C)cc1C.O=S(=O)([N-]S(=O)(=O)C(F)(F)F)C(F)(F)F	1339.39 ± 1.6	1.45336 ± 0.00052
CCCCCC [hexane]	655.09 ± 0.26	1.37236 ± 0.00039
Cc1ccccc1 [toluene]	862.18 ± 0.13	1.49367 ± 0.00035
c1ccsc1 [thiophene]	1058.61 ± 0.12	1.52523 ± 0.00035
c1ccncc1 [pyridine]	978.24 ± 0.1	1.50636 ± 0.00035
